Results: ChEMBL document CHEMBL1134005, “2-Arylindole-3-acetamides: FPP-competitive inhibitors of farnesyl protein transferase” (Bioorg Med Chem Lett, 2001)

Assays:
[1] = molecular target: T1, Protein farnesyltransferase (Homo sapiens, UniProt P49354+P49356); test: Concentration required for the inhibitory activity against human Farnesyltransferase; assay type: protein-complex assay
[2] = molecular target: T1, Protein farnesyltransferase; test: Inhibition of HDJ-2 farnesylation in PSN-1 cells; assay type: functional, cell-based
[3] = molecular target: T1, Protein farnesyltransferase; test: Inhibition of FPP incorporation into biotinylated K-Ras-derived peptide by human farnesyl transferase 5 nM ATP; assay type: functional
[4] = molecular target: Geranylgeranyl transferase type I (Homo sapiens, UniProt P49354+P53609); test: Inhibitory activity against human Geranylgeranyl transferase type I; assay type: protein-complex assay
[5] = molecular target: T1, Protein farnesyltransferase; test: (§1) Inhibition of FPP incorporation into biotinylated K-Ras-derived peptide by human farnesyl transferase with 5 nM ATP; assay type: functional
[6] = molecular target: T1, Protein farnesyltransferase; test: (§2) Inhibition of FPP incorporation into biotinylated K-Ras-derived peptide by human farnesyl transferase; assay type: functional
[7] = molecular target: T1, Protein farnesyltransferase; test: as §2; assay type: functional; remark: listed apart in the source
[8] = molecular target: T1, Protein farnesyltransferase; test: as §2; assay type: functional; remark: listed apart in the source
[9] = molecular target: T1, Protein farnesyltransferase; test: as §2; assay type: functional; remark: listed apart in the source
[10] = molecular target: T1, Protein farnesyltransferase; test: as §1; assay type: functional; remark: listed apart in the source
[11] = molecular target: T1, Protein farnesyltransferase; test: as §2; assay type: functional; remark: listed apart in the source
[12] = molecular target: T1, Protein farnesyltransferase; test: as §1; assay type: functional; remark: listed apart in the source
[13] = molecular target: T1, Protein farnesyltransferase; test: as §1; assay type: functional; remark: listed apart in the source
[14] = molecular target: T1, Protein farnesyltransferase; test: Inhibition of HDJ-2 farnesylation in PSN-1 cells at without GGT1; assay type: functional, cell-based
[15] = molecular target: T1, Protein farnesyltransferase; test: Inhibition of HDJ-2 farnesylation in PSN-1 cells with 100 nM GGT1; assay type: functional, cell-based
[16] = molecular target: T1, Protein farnesyltransferase; test: Inhibition of K-Ras farnesylation in PSN-1 cells without GGT1; assay type: functional, cell-based
[17] = molecular target: T1, Protein farnesyltransferase; test: Inhibition of K-Ras farnesylation in PSN-1 cells with 100 nM GGT1; assay type: functional, cell-based

SMILES | IC50 [1] [µM] | further results
CCCCn1c(-c2ccccc2)c(CC(=O)N(Cc2ccncc2)C(C)C)c2ccccc21 | > 50 | 
CC(C)N(Cc1ccncc1)C(=O)Cc1cn(Cc2cccc(Br)c2)c2ccccc12 | 2.15 | 
CC(C)N(Cc1ccncc1)C(=O)Cc1cn(Cc2ccccc2Br)c2ccccc12 | 0.572 | 
CC(C)N(Cc1ccncc1)C(=O)Cc1cn(Cc2ccc(Br)cc2)c2ccccc12 | 1.74 | 
CC(C)N(Cc1ccco1)C(=O)Cc1c(-c2ccccc2)[nH]c2ccccc12 | 0.241 | 
CC(C)N(Cc1ccncc1)C(=O)Cc1c[nH]c2ccccc12 | > 50 | 
Cc1ccccc1-c1[nH]c2ccccc2c1CC(=O)N(CCC#N)C1CC1 | 0.712 | 
CCn1c(-c2ccccc2)c(CC(=O)N(Cc2ccncc2)C(C)C)c2ccccc21 | 3.8 | 
Cn1c(-c2ccccc2)c(CC(=O)N(CCC#N)C2CC2)c2ccccc21 | 0.182 | 
O=C(Cc1c(-c2ccccc2)[nH]c2ccccc12)N(Cc1cccnc1)Cc1cccnc1 | 2.73 | 
Cc1ccccc1-c1c(CC(=O)N(Cc2ccncc2)C(C)C)c2ccccc2n1C | 0.012 | EC50 [2]: 1.06 µM
CCCn1c(-c2ccccc2)c(CC(=O)N(Cc2ccncc2)C(C)C)c2ccccc21 | 29.9 | 
CC(C)N(Cc1ccncc1)C(=O)Cc1c(-c2ccccc2)n(C)c2ccccc12 | 0.015 | EC50 [14]: 1.98 µM; EC50 [15]: 1 µM; EC50 [16]: > 30 µM; EC50 [2]: 1.33 µM; EC50 [17]: 1.8 µM
CC(C)N(Cc1ccnn1C)C(=O)Cc1c(-c2ccccc2)[nH]c2ccccc12 | 0.245 | 
CC(C)N(Cc1ccoc1)C(=O)Cc1c(-c2ccccc2)[nH]c2ccccc12 | 0.11 | 
CC(C)N(Cc1ccn(C)n1)C(=O)Cc1c(-c2ccccc2)[nH]c2ccccc12 | 0.568 | 
CC(C)N(Cc1cnn(C)c1)C(=O)Cc1c(-c2ccccc2)[nH]c2ccccc12 | 0.527 | 
N#Cc1ccc(Cn2cncc2CN2CCN(C(=O)NC34CC5CC(CC(C5)C3)C4)CC2)cc1 | 0.517 | IC50 [4]: 0.0002 µM
CC(C)N(Cc1cncnc1)C(=O)Cc1c(-c2ccccc2)[nH]c2ccccc12 | 0.232 | 
N#CCCN(C(=O)Cc1c(-c2ccccc2Cl)[nH]c2ccccc12)C1CC1 | 1.63 | 

Continued, in another order:

IC50 [1] [µM] | SMILES | further results
0.046 | CC(C)N(Cc1ccncc1)C(=O)Cc1c(-c2ccccc2Cl)[nH]c2ccccc12 | 
0.123 | N#CCCN(C(=O)Cc1c(-c2ccccc2)[nH]c2ccccc12)C1CC1 | 
0.172 | CC(C)N(Cc1ccncc1)C(=O)Cc1c(-c2cccc(Cl)c2)[nH]c2ccccc12 | 
0.16 | O=C(Cc1c(-c2ccccc2)[nH]c2ccccc12)N(Cc1ccncc1)C1CCC1 | 
0.38 | CC(C#N)N(Cc1cccnc1)C(=O)Cc1c(-c2ccccc2)[nH]c2ccccc12 (stereo not given) | 
0.031 | Cc1ccccc1-c1[nH]c2ccccc2c1CC(=O)N(Cc1ccncc1)C(C)C | 
1.37 | COc1ccccc1-c1[nH]c2ccccc2c1CC(=O)N(Cc1ccncc1)C(C)C | 
0.045 | O=C(Cc1c(-c2ccccc2)[nH]c2ccccc12)N(Cc1cccnc1)C1CC1 | 
4 | O=C(Cc1c(-c2ccccc2)[nH]c2ccccc12)N(Cc1ccncc1)C1CCCC1 | 
0.171 | O=C(Cc1c(-c2ccccc2)[nH]c2ccccc12)N(Cc1ccncc1)C1CC1 | 
14.4 | CC(C)N(Cc1ccncc1)C(=O)Cc1c(-c2ccc(Br)cc2)[nH]c2ccccc12 | 
4.59 | CC[C@@H](C)N(Cc1ccncc1)C(=O)Cc1c(-c2ccccc2)[nH]c2ccccc12 | 
0.077 | CC[C@H](C)N(Cc1ccncc1)C(=O)Cc1c(-c2ccccc2)[nH]c2ccccc12 | 
0.058 | CC(C)N(Cc1cccnc1)C(=O)Cc1c(-c2ccccc2)[nH]c2ccccc12 | 
0.4 | CC(C)N(Cc1cnccn1)C(=O)Cc1c(-c2ccccc2)[nH]c2ccccc12 | 
0.044 | O=C(Cc1c(-c2ccccc2)[nH]c2ccccc12)N(Cc1cccnc1)C1CCC1 | 
1.5 | CC(C)CN(Cc1ccccn1)C(=O)Cc1c(-c2ccccc2)[nH]c2ccccc12 | 
2.48 | CC(C)CN(Cc1cccnc1)C(=O)Cc1c(-c2ccccc2)[nH]c2ccccc12 | 
0.041 | CC(C)N(Cc1ccncc1)C(=O)Cc1c(-c2ccccc2)[nH]c2ccccc12 | 
0.106 | CCN(Cc1ccncc1)C(=O)Cc1c(-c2ccccc2)[nH]c2ccccc12 | IC50 [3]: 0.02 µM; IC50 [4]: > 20 µM; IC50 [5]: 0.047 µM; IC50 [6]: 4 µM; IC50 [7]: 0.054 µM; IC50 [8]: 0.23 µM; IC50 [9]: 0.25 µM; IC50 [10]: 0.065 µM; IC50 [11]: 0.23 µM; IC50 [12]: 0.19 µM; IC50 [13]: 0.043 µM
0.684 | CC(C)N(Cc1ccccn1)C(=O)Cc1c(-c2ccccc2)[nH]c2ccccc12 | 
11.4 | O=C(Cc1c(-c2ccccc2)[nH]c2ccccc12)N(Cc1cccnc1)C1CCCC1 | 
